As a reminder, the melting point is the temperature, or range, at which the solid turns liquid. With `CCCCN(Cc1ccc(-c2ccccc2-c2nnn[nH]2)cc1)c1ncncc1C(=O)OC(C)OC(=O)c1ccccc1` (stereo not drawn), the melting point was 79 to 88 °C.
`COCCOc1ccc(CCCNS(=O)(=O)Cc2ccccc2)c(Oc2ncc(C(F)(F)F)cc2Cl)c1`: the melting point was 97 to 100 °C.
For `CC(CN1CCn2c(c(-c3ccccc3)c3cc(Cl)ccc32)C1=O)N(C)C` (stereo not drawn), the melting point was 151 to 152 °C.
`CC(C)(C)OC(=O)N1CCC(CNc2ccccn2)CC1` returned a melting point of 126 to 130 °C.
Compound `OCc1ccc(-c2ccc(OC3SCC(O)C(O)C3O)cn2)cc1` (stereo not drawn) showed a melting point of 215 °C.
Compound `COc1ccccc1-c1n[nH]c(-c2ccccc2C)n1` gave a melting point of 160 to 161 °C.
The result for `N#Cc1c(Cl)[nH]c(-c2ccc(Cl)s2)c1Br` reads more than 200 °C; that for `CC(C)C1(C)NC(c2ncc(CO)cc2C(=O)O)=NC1=O` (stereo not drawn), 170 to 172 °C; that for `CN(C)C=C1C(=O)N(c2ccccc2)C(=O)N1C`, 131 to 133 °C.
Compound `Cc1cc2nc(C(C)C)c(CO)c(-c3ccc(F)cc3)n2n1` gave a melting point of 188 °C.
The compound `COc1cc2c(c(Cl)c1Cl)C(=O)C(C(C)C)C2` (stereo not drawn) yielded a melting point of 118 to 119 °C.
Consider `CC(Oc1ccc(C(F)(F)F)cc1)c1ccnc2ncnn12` (stereo not drawn), for which the melting point is 100 to 102 °C.
`CCC(NC(=NC#N)Nc1ccc(N(C)C)nc1)c1ccccc1` (stereo not drawn) gave a melting point of 107 to 113 °C.
To `CC(=O)SCC(C)C(=O)N(CC(=O)O)c1ccccc1` (stereo not drawn) belongs 94 to 94.5 °C.
Compound `CC1(C)Cc2c(c(N3CCCC3)nc3sc4c(NCc5ccc(S(C)(=O)=O)cc5)ncnc4c23)CO1` displayed a melting point of 324 to 326 °C.
To `O=C(O)Cc1cccc(C(=O)c2ccc(O)cc2)c1` belongs 147 to 149 °C; to `O=C1NC(N2CCCCCC2)=N/C1=C\c1c[nH]c2ncc(Cl)cc12`, 310 to 320 °C; to `C=c1c(=O)[nH]c2n1Cc1cc(OCCCC(=O)N(C)C3CCCCC3)ccc1N=2`, 176 to 178 °C.
The compound `C=CC1(NC(=O)OC)CC(C)(C)CC(C)(C)C1` came in with a melting point of 61 to 63 °C.
On to `CCON1C(=O)c2ccccc2C1=O`, for which the melting point was in the range of 95 to 97 °C.
Compound `[N-]=[N+]=NC(C(=O)O)c1ccsc1` (stereo not drawn) gave a melting point of 58 to 59 °C.
The result for `CCOC(=O)C1CNc2ccc(C)cc2O1` (stereo not drawn) reads 90 to 92 °C; that for `Nc1ccc(CCCO)cc1`, 54 to 56 °C; that for `CC1CCN(CCC(=O)Nc2ccc3c(=O)c4ccc(NC(=O)CCN5CCC(C)CC5)cc4[nH]c3c2)CC1`, more than 320 °C.
The result for `CC(=NNCCc1ccccc1)C(=O)O` reads 74 to 76 °C; that for `Cc1oc(-c2ccccc2)nc1COc1ccc(C=CC=O)cc1C(F)(F)F`, 138 to 139 °C; that for `Cc1ccc2c3c(ccc2n1)OCC(CN1C2CCC1CC(O)(c1ccc4ccccc4c1)C2)O3` (stereo not drawn), 218 °C.
On to `Cc1nc(C(=O)NN)c2n1-c1ccc(Cl)cc1C(c1ccccc1F)=NC2`, for which the melting point was in the range of 235 to 237 °C.
The result for `CC(C)(C)c1ccc(Oc2cccc(C(=O)NCCN(O)C(N)=O)c2)cc1` reads 100 to 102 °C.
`CN(C)CCCOc1ccc(-c2ccc(C(=O)O)cc2)cc1-c1ccc2c(c1)C(C)(C)CCC2(C)C` came in with a melting point of 199 °C.
The result for `Cn1c(C(F)(F)F)ccc(-c2c(F)cc(Cl)c3occc23)c1=O` reads 178 to 179 °C; that for `COc1ccc(OC)c(C(Nc2ccc(C(=N)N)cc2)C(=O)O)c1` (racemic), 310 °C.
For the compound `CC(C)c1nc2ccccn2c(=O)c1Br`, the melting point lay in the range of 204 to 207 °C.
To `CCOc1cc(-c2nc(-c3cnc(N)c(C)c3)no2)ccc1-c1ccccc1C(F)(F)F` belongs 163 to 165 °C; to `Cc1cc(C(=O)Nc2ccc(OCC(C)(C)C)c(C#N)c2)nn1-c1ccc(F)cc1`, 146 to 147 °C.
`C=CCNc1nc(N(CC=C)CC=C)nc2ccc(Cl)cc12` returned a melting point of 73 to 74 °C.
Take `COC(=O)C(C)(C)OCC#Cc1cc(Cl)ccc1NS(=O)(=O)c1ccc2nc(NC(C)=O)sc2c1`: the melting point turned out to be 80 °C.
On to `CC(C)(C)OC(=O)N1CCC(CCN2C(=O)c3ccccc3C2=O)CC1`, for which the melting point fell in the range of 112 to 114 °C.
In turn, `N#Cc1cc2c(nc1NC1CCCCC1)CCCC2=O` came in with a melting point of 143 to 145 °C.
To `COC(=O)/C(=N\O)c1csc(NC(c2ccccc2)(c2ccccc2)c2ccccc2)n1` belongs 204 to 205 °C; to `Nc1nc2ccccc2c2c1ncn2CCCCNC(=O)c1ccc(C(=O)c2ccccc2)cc1`, 159 to 161 °C.
The compound `CCCCCCCCOC(=O)Nc1ccccc1C1Cc2ccccc2N1` (stereo not drawn) had a melting point of 99 to 102 °C.
To `O=C(O)CN(C(=O)c1ccccc1S)C1CCCC1` belongs 148 to 150 °C; to `O=C(Cn1c(-c2cccc(Br)c2)nc2cccnc21)N1CCCCC1`, 157 to 158 °C.
`CCOC(=O)/C(=C\Nc1cc(OC)cc(OC)c1)c1ccccc1` showed a melting point of 75 to 76 °C.
`O=C(O)c1cn(C2CC2)c2cc(N3CCNC(COc4ccccc4)C3)c(F)cc2c1=O` (stereo not drawn) yielded a melting point of 112 to 115 °C.
`CCCn1cc2c(n1)-c1c(nc3ccccc3c1N)CC2` had a melting point of 225 to 226 °C.
Compound `CCCCCCCCCC(=O)Nc1cc(C(=O)O)ccc1C` yielded a melting point of 246 to 250 °C.
Turning to `Cc1cc(Nc2ccnc(Nc3ccc(S(=O)(=O)N(C)C4CCN(C)CC4)cc3)n2)ccc1F`, the melting point fell in the range of 110 to 120 °C.
`CCOC(=O)C1=C(COCc2cc(=O)n(C)c(C)n2)NC(C)=C(C(=O)OC)C1c1cccc(Cl)c1Cl` (stereo not drawn) displayed a melting point of 153 to 158 °C.
In turn, `CC(CNC(=O)c1c2ccccc2nc2c1[nH]c1ccccc12)N(C)C` (stereo not drawn) yielded a melting point of 188 to 189 °C.
In turn, `FC(F)(F)c1ccc(-c2ccc3[nH]c4c(ccc5cc[nH]c54)c3c2)cc1` came in with a melting point of more than 250 °C.
Compound `NS(=O)(=O)c1ccc(NC(=O)CNC2CCCCC2)c(Cl)c1` showed a melting point of 213 to 215 °C.
For `Cn1cc(CO)c2c3c(c(-c4ccccc4Cl)cc21)C(=O)NC3=O`, the melting point lay in the range of 270 to 274 °C.
Take `COc1ccc2c(c1)OCCC(C(=O)N1CCN(C(=O)c3cc(OC)c(OC)c(OC)c3)CC1)=C2`: the melting point fell in the range of 133 to 135 °C.
The result for `O=C1NC(=S)NC1=Cc1cc(O)c(O)c([N+](=O)[O-])c1` reads more than 350 °C; that for `CCCn1c(=O)n2c(C)nnc2c2[nH]cnc21`, 298 to 299 °C; that for `Cc1nc(-n2cc(CCCc3ccccc3)nn2)sc1C(=O)NCc1ccc(F)c(F)c1`, 81 to 84 °C.
The compound `NS(=O)(=O)c1cccc(C(O)C(F)(F)F)c1` (stereo not drawn) had a melting point of 130 to 132 °C.
The compound `O=C(O)c1ccc(OCCCc2ccc(OCCCC3CCCCC3)cc2)c(C(=O)NC2CCCC(C(=O)O)C2)c1` (stereo not drawn) registered a melting point of 160 °C.
`CC(C)(C)C(=O)C=Cc1ccc(Cl)cc1`: the melting point lay within 83 to 84 °C.
Regarding `COc1ccc(-n2c(=O)c3c(Cc4ccccc4)n[nH]c3c3cccnc32)cc1`, the melting point is more than 320 °C.
`CCOC(=O)c1ccc(N)c(CNC(C)(C)C)c1` gave a melting point of 77 to 79 °C.
`Cc1cc2c(c3ccc(=O)[nH]c13)OC(CNC(=O)[C@@H]1CCCN1C(=O)OCc1ccccc1)C2` (stereo partly drawn): the melting point lay within 131 to 132 °C.
To `COc1ccc(-c2cc(-c3ccccc3)[nH]c2C(=O)NCc2ccc(C(=O)NCCS)cc2)cc1` belongs 131 to 132 °C; to `NS(=O)(=O)c1ccc(-c2cscc2-c2ccccc2)cc1F`, 171 °C.
In the case of `CCCN(CCC)C(=O)n1cc(C)c2c1CC1(c3cccc(O)c3)CCN(CC)CC1C2` (stereo not drawn), the melting point lay within 151 to 153 °C.
On to `CCOC(=O)c1cc2cccc([N+](=O)[O-])c2n1COC`, for which the melting point was 62 to 63 °C.
Take `c1ccc(CN(Cc2ccccc2)OCCCCCCCCON(Cc2ccccc2)Cc2ccccc2)cc1`: the melting point was in the range of 49 to 51 °C.
In turn, `O=C(O)CCc1c(-c2ccc(F)cc2)[nH]c2ccc(Cl)cc12` showed a melting point of 153 to 154 °C.
In turn, `Fc1ccc(-c2ccn(CC3CCCNC3)c2-c2ccncc2)cc1` (stereo not drawn) registered a melting point of 134 to 135 °C.
`CCC1(CC)CCSc2c(CC#Cc3ccc(C=O)cc3)cccc21` had a melting point of 55 to 63 °C.
The result for `COc1cccc(C(=O)c2[nH]c3cc(Cl)ccc3c2CC(=O)O)c1` reads 227 to 231 °C; that for `C=CC1OC(=O)N2c3ccc(O)cc3CCC12` (stereo not drawn), 250 °C.
The result for `O=C(c1ccccc1)c1ccc(Br)s1` reads 41 to 43 °C.
For the compound `Cn1cc(C2=C(c3c4n(c5ccccc35)CC(NC(=O)OC(C)(C)C)CC4)C(=O)OC2=O)c2ccccc21` (stereo not drawn), the melting point fell in the range of 141 to 145 °C.
For `CCc1ccc(C(=O)Nc2ccccc2)cc1Nc1cccc(C(F)(F)F)c1`, the melting point lay in the range of 133 to 134 °C.
In the case of `COc1cc2c(cc1OC)OCC(=O)C2`, the melting point fell in the range of 126 to 130 °C.
The compound `O=C(Nc1c(OCc2ccccc2)cc(Br)cc1[N+](=O)[O-])C1CC1` yielded a melting point of 191 °C.
On to `Cc1cc(F)ccc1Nc1nc(N(C)c2ccccc2)c2cccc(OCCCN3CCOCC3)c2n1`, for which the melting point lay in the range of 133 to 134 °C.
`Cn1ncc(C(=O)O)c1C(=O)Nc1ccn2nc(-c3cccc(F)n3)nc2c1` gave a melting point of more than 290 °C.
On to `CC(C)(C)c1ccccc1N1CCN(C(=O)CCC#N)CC1`, for which the melting point was in the range of 109 to 110 °C.
The compound `CCOC(=O)C(CCCN(C)CCc1ccc(OC)c(OC)c1)(C(=O)OCC)c1ccc(OC)c(OC)c1` yielded a melting point of 101 to 104 °C.
As to `CN(C)c1ccc(CNc2ccc(Cl)c(Cl)c2)cc1`, the melting point was found to be 117 °C.
Regarding `COc1c(C=Cc2ccc(C=CC3=C(C#N)C(=C(C#N)C#N)OC3(C)C(F)(F)F)s2)cc2c3c1CCCN3CCC2` (stereo not drawn), the melting point was 159 to 161 °C.
Regarding `COC(=O)c1cc(NS(C)(=O)=O)c2cc(Cc3ccc(F)cc3)cnc2c1O`, the melting point was 190 °C.
Consider `Cn1ccc2cc(C(=N)Nc3cccc(NC(=O)C=Cc4ccccc4)c3)ccc21`, for which the melting point fell in the range of 143 to 148 °C.
The result for `COc1cc(C(C)C)c2c(c1OC)S(=O)(=O)NC2=O` reads 210 to 212 °C.
